Assay results reported in US20040180093A1, “Polymer compositions with bioactive agent, medical articles, and methods” (3M Innovative Properties Company, priority 2003, published 2004).

System: Staphylococcus aureus bacteria
Assay: 2 Hours % Live Bacteria Test
Type: cell-based
Settings: standard solution 0.5 wt-% in DI, calculated Ag+ weight 22,224 μg
Procedure: The effectiveness of a sample was tested using a L-7012, Bacterial Viability Kit, available from Molecular Probes (Eugene, Oreg.). The procedure is outlined below using the red, propidium iodide dye, and green, SYTO 9 dye, contained in the kit to stain the live and dead bacteria.
Preparation of bacteria solution: Staphylococcus aureus bacteria were grown in Trypticase (Tryptic) Soy Broth (TSB) medium overnight. Bacteria were concentrated by centrifugation at 10,000× gravity for 15 minutes (min). Supernatant was removed and the pellet was re-suspended in MilliQ water (filtered through a 0.2 μm pore-size filter) or in Butterfield phosphate buffer (from Hardy Diagnostics, Santa Maria, Calif.). […]
Sample preparation: All prototypes were prepared by punching out a 1-inch (2.54-cm) diameter samples using a stainless steel punch; sometimes as indicated in the examples a 1-inch (2.54 cm) disk was further cut with scissors in eighths and then evaluated. […]
Bacteria labeling and Anti-microbial testing: 7 m]L of bacteria solution at initial concentration of approximately 1×10^8 bacteria/mL were pipetted into a 50 mL conical tube containing the sample. […] These solutions were then measured by flow cytometry. Cell viability was measured using the BD FACSCaliber flow cytometer (made by Becton Dickinson & Company, Franklin Lakes, N.J.). […]

How did the “% live bacteria after 2 hours” value turn out when `O=[N+]([O-])[O-].[Ag+]` [silver nitrate, Silver Nitrate] was run?
Its value is 15.8%.
